Earlier results as cited in patent US10238626B2, “Therapeutic compounds” (ARIZONA BOARD OF REGENTS ON BEHALF OF ARIZONA STATE …, priority 2017, dated 2019).

Columns and labels:
hRXRβ = hRXRβ (Homo sapiens, UniProt P28702); conditions: read-out: EC50 for the hRXRβ isoform; literature (Santin et al. 2009)
hRXR [1] = conditions: Caco-2 cells; literature (Wagner et al. 2009)
hRXR [2] = conditions: Caco-2 cells; literature (Wagner et al. 2009); remark: listed apart in the source

hRXRβ, sequence (P28702 whole entry, canonical isoform): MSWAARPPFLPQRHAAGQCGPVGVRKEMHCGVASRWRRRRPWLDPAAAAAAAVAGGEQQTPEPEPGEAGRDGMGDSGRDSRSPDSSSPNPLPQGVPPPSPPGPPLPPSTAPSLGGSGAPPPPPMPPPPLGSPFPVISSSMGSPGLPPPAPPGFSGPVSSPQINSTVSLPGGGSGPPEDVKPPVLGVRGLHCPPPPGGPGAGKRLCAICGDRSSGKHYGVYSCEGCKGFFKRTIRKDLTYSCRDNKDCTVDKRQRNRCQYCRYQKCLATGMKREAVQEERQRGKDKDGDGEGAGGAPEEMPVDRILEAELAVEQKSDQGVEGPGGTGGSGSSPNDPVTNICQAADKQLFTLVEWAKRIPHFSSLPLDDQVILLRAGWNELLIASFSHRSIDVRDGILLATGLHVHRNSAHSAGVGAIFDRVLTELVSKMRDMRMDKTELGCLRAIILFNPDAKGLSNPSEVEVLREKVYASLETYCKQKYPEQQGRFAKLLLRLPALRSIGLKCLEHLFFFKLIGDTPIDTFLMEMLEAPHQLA

Row | Structure (SMILES) | EC50 (hRXRβ) [nM] | Kd (hRXR [1]) [nM] | EC50 (hRXR [2]) [nM]
1 | Cc1cc2c(cc1-c1cc(/C=C/C(=O)O)ccc1O)C(C)(C)CCC2(C)C [CD3254] | ~10 |  | 
2 | C=C(c1ccc(C(=O)O)c(F)c1)c1cc2c(cc1C)C(C)(C)CCC2(C)C [compound 3] |  | 12 | 43
